# Source: patent US11427560B2, “Composition and methods for inhibiting mammalian sterile 20-like kinase 1” (The Scripps Research Institute, priority 2015, dated 2022)
# Legend:
# human islets = assay: High glucose/palmitate induced apoptotic activity in human islets; settings: high glucose and palmitate (HG/Pal), 25 μM neratinib, FIG. 8
# Excerpt: Freshly isolated human islets from a single donor were exposed to high glucose and palmitate (HG/Pal) to induce apoptosis.
# beta cells = assay: Beta cell apoptosis with increasing neratinib concentrations (FIG. 3); format: cell-based; settings: increasing concentrations of neratinib
smiles,measurement,setting,value
CCOc1cc2ncc(C#N)c(Nc3ccc(OCc4ccccn4)c(Cl)c3)c2cc1NC(=O)/C=C/CN(C)C [neratinib],MST1 phosphorylation (pMST1),human islets,inhibited
same,induction of cleaved caspase 3 (Cl Casp3),human islets,inhibited
same,Beta cell apoptosis,beta cells,decrease with exposure to increasing concentrations
